Reference: publication PMC11596355, “Virtual Screening Approaches to Identify Promising Multitarget-Directed Ligands for the Treatment of Autism Spectrum Disorder” (Molecules, 2024)

Tests used:
human D2sR (D2shortR) = target: T1, human D2sR (D2shortR) (Homo sapiens, UniProt P14416); assay: [3H]spiperone displacement, CHO-K1 membranes; assay type: binding; details: read-out: D2sR pKi ± SEM ^b (converted)
T1 construct: gene DRD2; full-length short isoform stably expressed in CHO-K1 cells, membrane fraction
T1 sequence (P14416 1-414 isoform P14416-2): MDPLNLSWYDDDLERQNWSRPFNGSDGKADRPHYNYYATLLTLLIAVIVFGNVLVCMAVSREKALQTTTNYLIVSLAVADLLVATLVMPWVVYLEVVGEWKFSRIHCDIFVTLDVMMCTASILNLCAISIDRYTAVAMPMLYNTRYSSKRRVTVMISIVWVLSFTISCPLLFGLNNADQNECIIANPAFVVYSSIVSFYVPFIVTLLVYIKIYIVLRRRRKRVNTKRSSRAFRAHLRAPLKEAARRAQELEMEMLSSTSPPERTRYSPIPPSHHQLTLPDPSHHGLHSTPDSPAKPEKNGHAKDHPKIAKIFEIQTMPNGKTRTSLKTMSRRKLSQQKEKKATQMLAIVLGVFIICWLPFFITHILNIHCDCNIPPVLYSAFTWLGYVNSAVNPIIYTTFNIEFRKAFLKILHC
Excerpt: [3H]spiperone displacement, CHO-K1 membranes on human D2sR (D2shortR)

human D3R = target: T2, human D3R (Homo sapiens, UniProt P35462); assay: [3H]spiperone displacement, CHO-K1 membranes; assay type: binding; details: read-out: D3R pKi ± SEM ^b (converted)
T2 construct: gene DRD3; full-length, stably expressed in CHO-K1 cells, membrane fraction
T2 sequence (P35462 whole entry): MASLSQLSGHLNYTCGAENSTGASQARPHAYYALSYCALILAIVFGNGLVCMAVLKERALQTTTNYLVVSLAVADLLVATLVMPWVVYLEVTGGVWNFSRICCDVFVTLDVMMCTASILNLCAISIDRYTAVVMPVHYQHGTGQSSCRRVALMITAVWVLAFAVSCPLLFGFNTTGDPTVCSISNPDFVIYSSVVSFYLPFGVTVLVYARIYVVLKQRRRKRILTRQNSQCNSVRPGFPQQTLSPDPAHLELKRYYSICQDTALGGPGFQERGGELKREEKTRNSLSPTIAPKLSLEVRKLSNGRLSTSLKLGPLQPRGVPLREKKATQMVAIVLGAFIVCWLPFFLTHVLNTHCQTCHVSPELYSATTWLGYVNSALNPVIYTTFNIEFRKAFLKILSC
Excerpt: [3H]spiperone displacement, CHO-K1 membranes on human D3R

Ki (human D2sR (D2shortR)): 0.759 µM | Ki (human D3R): 14.5 µM
SMILES: N=C(N)N(CCCCN1CCN(CCCCN(Cc2ccc(C(F)(F)F)cc2)C(=N)N)CC1)Cc1ccc(C(F)(F)F)cc1 [compound 30]
